Assay results: US8377455B2, “Biosurfactant composition produced by a new Bacillus licheniforms strain, uses and products thereof” (priority 2008, dated 2013)
Read-outs that look alike come from different tables or passages of the source.

Assays:
[1] = system: S. aureus ATCC 25923 biofilm; assay: High-throughput susceptibility testing of CBD biofilm to biocides/metals with or without V9T14; type: cell-based, Staphylococcus aureus; settings: 8 h exposure
Description: (§1) E. coli CFT073 and E. coli O157:H7 were grown on Luria Bertani agar (LB, EMD Chemicals Inc.), P. aeruginosa PA14 and S. aureus were grown on TSB agar. Susceptibility testing of metals was performed in Minimal Salts Vitamins Glucose (MSVG) according to Teitzel and Parsek (2003), while Polycide susceptibility testing was performed in Phosphate Buffered Saline (PBS).
(§2) AgNO3 (Sigma) and CuSO4 (Sigma) were dissolved in double distilled water (ddH2O) to 150 mM and 500 mM respectively. Polycide was diluted in PBS to 25%. Solutions were sterile filtered and stored at 4° C. Serial two-fold dilutions were performed to create the challenge plate.
(§3) Biofilms were grown in the Calgary Biofilm Device (CBD) as described above. Starting from cryogenic stock, the strain was streaked out twice on TSA, and an inoculum was prepared by suspending colonies from the secondary agar subculture in 0.9% saline to match a 1.0 McFarland standard. This standard inoculum was diluted 1/30 in LB broth.
150 μL of this inoculum was transferred into each well of a 96-well plate, and the sterile peg lid of the CBD was inserted into the plate. […]
Following this period of incubation, biofilms were rinsed once with 0.9% saline (200 μL/well) to remove loosely adherent planktonic cells. Biofilm formation was evaluated by breaking off four pegs from each device after it has been rinsed. […]

[2] = system: P. aeruginosa PA14 biofilm; type: cell-based, Pseudomonas aeruginosa
Description: as §1, §2, §3
(§4) 150 μL of this inoculum was transferred into each well of a 96-well plate, and the sterile peg lid of the CBD was inserted into the plate. The inoculated device was then incubated at 125 rpm, for 24 h at 37° C. and 95% relative humidity. In an alternative set of experiments, biofilms were grown for 48 h before silver exposure and spent medium was changed with fresh medium after 24 h.
Following this period of incubation, biofilms were rinsed once with 0.9% saline (200 μL/well) to remove loosely adherent planktonic cells. Biofilm formation was evaluated by breaking off four pegs from each device after it has been rinsed. Biofilms were disrupted from pegs into 200 μL/well of LB supplemented with 1% Tween 20 using an ultrasonic cleaner for a period of 10 min (Aquasonic model 250T, VWR Scientific, Mississauga, Canada) as described above. The disrupted biofilms were serially diluted in 0.9% saline and plated on LB agar for viable cell counting. An initial set of quality control assays were carried out to ascertain that the strain used in this study formed equivalent biofilm on the CBD pegs as described in Harrison (2008). […]

E. coli CFT073 biofilm = type: cell-based, Escherichia coli; settings: for concentration for eradication of biofilm: 24 h exposure
Description: as §1
Extracted V9T14 biosurfactant was stored under the chemical hood providing solvent evaporation until dryness. The biosurfactant powder was homogenized using a porcelain mortar and a pestle. V9T14 was dissolved in PBS and pH was adjusted to 7.5 with 1 N NaOH. Volume was adjusted to match a final concentration of 5000 μg/mL.
as §2, §3, §4
Following this period of incubation, biofilms were rinsed once with 0.9% saline (200 μL/well) to remove loosely adherent planktonic cells. Biofilm formation was evaluated by breaking off four pegs from each device after it has been rinsed. Biofilms were disrupted from pegs into 200 μL/well of LB supplemented with 1% Tween 20 using an ultrasonic cleaner for a period of 10 min (Aquasonic model 250T, VWR Scientific, Mississauga, Canada) as described above. The disrupted biofilms were serially diluted in 0.9% saline and plated on LB agar for viable cell counting. An initial set of quality control assays were carried out to ascertain that the strain used in this study formed equivalent biofilm on the CBD pegs as described in Harrison (2008).
(§5) The challenge plate of biocides, antibiotics and biosurfactant was made in a 96-well plate. Biocides were serially two-fold diluted in PBS and V9T14 biosurfactant was added to each well at the final concentration of 5 μL/mL. Antibiotics were similarly diluted in Muller-Hinton broth, while metals were diluted in MSVG.
Biofilms that have been grown on lids of the CBD and rinsed once in 0.9% saline were inserted in the challenge plates. Following the exposure time at 37° C., biofilms were rinsed once with 0.9% saline (200 μL/well) and then placed in a microtiter “recovery” plate that contained 200 μL/well of neutralizing medium (TSB supplemented with 1% Tween 20, 2.0 g/L reduced glutathione, 1.0 g/L L-histidine, 1.0 g/L L-cysteine). The recovery plate was sonicated for a period of 10 min (Aquasonic model 250T, VWR Scientific, Mississauga, Canada). The disrupted biofilms were serially diluted in 0.9% saline and plated on the appropriate agar medium for viable cell counting. Plates were then incubated at 37° C. overnight and finally enumerated.

[3] = system: planktonic E. coli CFT073; type: cell-based, Escherichia coli
Description: as §5, with “MSVG. When prepared, each challenge plate had 7 sterility control, 8 growth control, 11 wells containing 5 μL/mL of V9T14 biosurfactant, 11 different concentrations of single biocide (or metals) and 11 different concentrations of biocide (or metals) associated with 5 μL/mL of V9T14 biosurfactant.” for “MSVG.”
To define MBC of biocides, recovery plates were incubated at 37° C. for 24-48 h and the adsorbance (OD650 nm) was read in a microtiter plate reader.

| Structure (SMILES) | maximum reduction of viable cell count with V9T14 [1] | reduction of the concentration needed to bring biofilm below detectable count when V9T14 present [1] | maximum increase of killing with V9T14 [2] | enhancement of killing activity by presence of V9T14 (E. coli CFT073 biofilm; 2 h exposure, 3.750 mM silver, 5 μg/mL V9T14) | enhancement of killing activity by presence of V9T14 (E. coli CFT073 biofilm; 8 h exposure, 0.015 mM silver (p=0.03)) | silver concentration needed with V9T14 relative to silver alone (fold less) (E. coli CFT073 biofilm; biofilm reduced below detection limit) [fold] | concentration for eradication of biofilm (E. coli CFT073 biofilm; silver alone) [mM] | concentration for eradication of biofilm (E. coli CFT073 biofilm; silver with 5 μg/mL V9T14 added) [mM] | increase of killing efficacy by V9T14 (E. coli CFT073 biofilm; solution prepared 48 h before, 4 h exposure (p=0.0007)) | metal concentration needed with V9T14 relative to silver alone (fold less) ([3]; 5 μg/mL V9T14, 24 h) [fold] | concentration from which complete inhibition of growth was observed ([3]; silver alone, 24 h) [mM] | concentration required to eradicate the biofilm ([2]; silver alone, 8 h exposure) [mM] | concentration required to eradicate the biofilm ([2]; silver with 5 μg/mL V9T14, 8 h exposure) [mM] |
| --- | --- | --- | --- | --- | --- | --- | --- | --- | --- | --- | --- | --- | --- |
| O=S(=O)([O-])[O-].[Cu+2] [copper, cupric sulfate] | about 2.4 log10 | about 95% | about 2.2 log10 | – | – | – | – | – | – | – | – | – | – |
| O=[N+]([O-])[O-].[Ag+] [silver, silver nitrate] | – | – | – | about 0.6 log10 | about 3.2 log10 | 258 | 7.5 | 0.029 | about 2.3 log10 | 64 | 7.5 | 0.469 | 0.117 |
